Among the test systems are A549; MOLT-4; IGROV-1; MDA-N; MDA-MB-435; M14; SK-MEL-28; HOP-62; RPMI-8226; U-251; ACHN; NCI-H460; OVCAR-4; SW-620; LOX IMVI; K562; SK-MEL-2; SNB-19; Hs-578T; OVCAR-3.
What all share (test): DTP human tumour cell line panel, 48 h

SMILES strings stand for the structures.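 96-well plates; 48 h exposure; 5 concentrations. Endpoints by linear interpolation between flanking doses. Not reached: highest tested concentration assigned. GI50 = concentration required for 50% inhibition of growth.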 Active and inactive are the calls of the source. Rule as the data show it: active = GI50 up to about 1.1 µM and inactive = higher.

For the molecule `Nc1nc(N)c2nc(CNc3ccc(C(=O)NC(CCNC(=O)c4ccccc4C(=O)O)C(=O)O)cc3)cnc2n1` (stereo not given), the concentration for 50% growth inhibition (GI50) in the assay on A549 was 0.01 µM (active); with MOLT-4, < 0.0154 µM (active); in the assay on IGROV-1, < 0.0212 µM (active); with MDA-N, 0.00785 µM (active); in the assay on MDA-MB-435 it was 0.01 µM (active); in the assay with M14 it was 0.01 µM (active). Also, the GI50 with SK-MEL-28 is 4.14 µM (inactive); with HOP-62, < 0.0205 µM (active); with RPMI-8226, 0.083 µM (active); in the assay on U-251 it was < 0.0254 µM (active); in the assay on ACHN, 0.01 µM (active); with NCI-H460 it was 0.01 µM (active). Besides, the GI50 in the assay on OVCAR-4 was > 100 µM (inactive); in the assay with SW-620 it was 0.01 µM (active); in the assay on LOX IMVI it was 0.01 µM (active); in the assay with K562 it was 0.01 µM (active); in the assay with SK-MEL-2, > 100 µM (inactive); in the assay with SNB-19 it was < 0.0434 µM (active). Besides, the GI50 in the assay with Hs-578T is > 100 µM (inactive); with OVCAR-3, 31.6 µM (inactive).
`CCOC(=O)N(Cc1cccs1)c1cc(OC)c(OC)c(OC)c1`: the GI50 was 94.6 µM (inactive) with A549; 13.6 µM (inactive) with MOLT-4; 17 µM (inactive) with IGROV-1; 28.9 µM (inactive) in the assay with MDA-N; 17.4 µM (inactive) with MDA-MB-435; > 100 µM (inactive) in the assay on M14. The GI50 in the assay with SK-MEL-28 was > 100 µM (inactive); in the assay with HOP-62 it was > 100 µM (inactive); in the assay with RPMI-8226, 25.8 µM (inactive); in the assay on U-251 it was > 100 µM (inactive); in the assay with ACHN it was > 100 µM (inactive); in the assay on NCI-H460, 51.1 µM (inactive). In addition, the GI50 in the assay with OVCAR-4 is 32.1 µM (inactive); with SW-620, > 100 µM (inactive); in the assay on LOX IMVI, 45.2 µM (inactive); in the assay with K562, 26.2 µM (inactive); with SK-MEL-2, 26.5 µM (inactive); in the assay with SNB-19, > 100 µM (inactive). The GI50 in the assay on Hs-578T is 86.5 µM (inactive); with OVCAR-3 it was 53.8 µM (inactive).
Regarding `Cc1ccc(/C=C2\Sc3scc(-c4ccccc4)[n+]3C2=O)cc1`, the GI50 is 25.1 µM (inactive) with A549; 30.1 µM (inactive) with MOLT-4; 18 µM (inactive) with IGROV-1; 18 µM (inactive) with MDA-N; 9.27 µM (inactive) with MDA-MB-435; 23.8 µM (inactive) with M14. For the same molecule, the GI50 in the assay on SK-MEL-28 was 51.5 µM (inactive); with HOP-62 it was 26.2 µM (inactive); with RPMI-8226, 8.28 µM (inactive); in the assay on U-251, 16.2 µM (inactive); in the assay with ACHN, 20.7 µM (inactive); in the assay with NCI-H460, 16.8 µM (inactive). Besides, the GI50 with OVCAR-4 is 29 µM (inactive); with SW-620 it was 20.6 µM (inactive); in the assay on LOX IMVI, 20.6 µM (inactive); with K562, 12.3 µM (inactive); in the assay on SK-MEL-2, 24.1 µM (inactive); in the assay with SNB-19 it was 24.5 µM (inactive). Further, the GI50 was 3.38 µM (inactive) in the assay with Hs-578T and 31.4 µM (inactive) in the assay with OVCAR-3.
As for `C=C1CC(Cn2cc(Br)c(=O)[nH]c2=O)(c2ccc(-c3ccccc3)cc2)OC1=O` (stereo not given), the GI50 in the assay on A549 is 5.31 µM (inactive); with MOLT-4, 0.552 µM (active); in the assay on IGROV-1 it was 1.4 µM (inactive); in the assay on MDA-N, 0.83 µM (active); with MDA-MB-435, 1.35 µM (inactive); in the assay with M14, 1.43 µM (inactive). Also, the GI50 with SK-MEL-28 was 0.221 µM (active); with HOP-62, 4.23 µM (inactive); in the assay on RPMI-8226, 0.128 µM (active); in the assay with U-251 it was 5.92 µM (inactive); in the assay with ACHN, 1.83 µM (inactive); with NCI-H460, 6.25 µM (inactive). In addition, the GI50 was 2.13 µM (inactive) in the assay on OVCAR-4; 0.341 µM (active) in the assay with SW-620; 0.582 µM (active) in the assay on LOX IMVI; 0.2 µM (active) in the assay on K562; 1.49 µM (inactive) with SK-MEL-2; 12.6 µM (inactive) in the assay on SNB-19. In addition, the GI50 was 2.74 µM (inactive) in the assay on Hs-578T and 1.63 µM (inactive) in the assay with OVCAR-3.

One may read the GI50 as the concentration at which growth is held to half of that of the control.

Source of the values: ChEMBL document CHEMBL1201862, “PubChem BioAssay data set” (2004).
